Measured values reported in patent US11453669B2, “Polycyclic pyridone derivative” (Shionogi & Co., Ltd., priority 2018, dated 2022).
Read-outs that look alike come from different tables or passages of the source.

Legend:
[1] = target: T1, Voltage gated sodium channel (Nav1.5 channel) encoded by SCN5A gene (Homo sapiens, UniProt Q14524); test: Nav test (QPatch whole cell patch clamp); assay type: cell-based; conditions: HEK cells expressing Nav1.5, applied 5 minutes or more, room temperature
T1 construct: expressed in transfected cells; host or cells: HEK cells
Procedure: A cell was retained at a membrane potential of −100 mV by whole cell patch clamp method using a fully automated patch clamp system (QPatch; Sophion Bioscience A/S), and INa induced by depolarization pulse stimulation at −10 mV for 20 ms was recorded. […] The extracellular solution in which the medium and the compound of the present invention had been dissolved at each objective concentration was applied to the cell for 5 minutes or more under conditions of room temperature.

[2] = assay type: in vitro ADME; conditions: human, 30 min, 0.5 μmol/L, pH 7.4
Procedure: Using commercially available pooled human liver microsomes, a compound of the present invention was reacted for a constant time, and a remaining rate was calculated by comparing a reacted sample and an unreacted sample, thereby, a degree at which the compound of the present invention was metabolized in liver was assessed.
A reaction was performed (oxidative reaction) at 37° C. for 0 minute or 30 minutes in the presence of 1 mmol/L NADPH in 0.2 mL of a buffer solution (50 mmol/L Tris-HCl pH 7.4, 150 mmol/L potassium chloride, 10 mmol/L magnesium chloride) containing 0.5 mg protein/mL of human liver microsomes. After the reaction, 50 μL of the reaction solution was added to 100 μL of a solution of methanol/acetonitrile=1/1 (v/v), and the mixture was mixed and centrifuged at 3000 rpm for 15 minutes. The compound of the present invention in the centrifugation supernatant was quantified by LC/MS/MS or solid-phase extraction (SPE)/MS. The amount of the compound of the present invention remaining after the reaction was calculated with the amount of the compound at 0 minutes of the reaction defined as 100%.

HIV = test: Anti-HIV activity (MT-4 cells, MTT); assay type: cell-based; conditions: Human immunodeficiency virus 1, MT4, 96 h, read-out: EC50_nM (50% HIV inhibitory concentration)
Procedure: Serial dilutions of a test sample were prepared in a 96-well microplate (50 μL/well). 2.5×10^5 cells/mL of an MT-4 cell suspension was dispensed at 100 μL/well to the plate containing the test sample. Then, an HIV virus solution was dispensed at 50 μL/well. The plate was mixed with a plate mixer and cultured for 4 days in a CO2 incubator. An MTT (3-(4,5-dimethylthiazol-2-yl)-2,5-diphenyltetrazolium bromide) solution was dispensed at 30 μL/well. The plate was reacted for 1 hour in a CO2 incubator. 150 μL of the supernatant was removed from each well so as not to take up the cells. 150 μL of a cell lysis solution was added to each well and well mixed with a plate mixer until the cells were completely lysed. The absorbance of the mixed plate was measured at two wavelengths of 560 nm and 690 nm using a microplate reader.

[3] = system: HIV mutant strain 2 (E92Q/E138T/G140S/Q148H); assay type: cell-based; conditions: FC=EC50 of the mutant strain/EC50 of the wild strain, HeLa-CD4 cells
Procedure: (§1) Serial dilutions of a test sample were prepared in a 96-well microplate (50 μL/well). 2.5×10^5 cells/mL of a HeLa-CD4 cell suspension was dispensed at 100 μL/well to the plate containing the test sample. Then, an HIV virus solution (wild strain and mutant strain) was dispensed at 50 μL/well. The plate was mixed with a plate mixer and cultured for 3 days in a CO2 incubator. The culture supernatant in each well was removed by suction. A cell lysis buffer in a reporter assay kit was dispensed at 100 μL/well, and the plate was frozen in a freezer (−80° C.). The plate frozen in a freezer was thawed at room temperature, then mixed with a plate mixer, and centrifuged at 1,200 rpm for 5 minutes. The supernatant of each well was dispensed at 20 μL/well to a 96-well microplate (BLACK). A chemiluminescent in the reporter assay kit reagent was dispensed at 100 μL/well and reacted at room temperature for approximately 1 hour. Then, luminescence intensity was measured using MicroBeta TRILUX.

[4] = system: HIV mutant strain 1 (E138K/G140S/Q148H/N155H); assay type: cell-based; conditions: FC=EC50 of the mutant strain/EC50 of the wild strain, HeLa-CD4 cells
Procedure: as §1

[5] = Clearance evaluation test (rat, intravenous); assay type: in vivo; conditions: plasma, 1 umol/kg, rats, intravenous 1 μmol/kg; for half-life: read-out: elimination half-life (t½) (converted); for clearance: read-out: total body clearance (CLtot)
Description: Experimental Material and Method
(1) Animals used: rats were used.
(2) Rearing conditions: the rats were allowed to freely take solid feed and sterilized tap water.
(3) Dose and grouping setting: a given dose was intravenously administered. Groups were set as follows:
Intravenous administration: 1 μmol/kg (n=2)
(4) Preparation of dosing solution: the test sample was solubilized using a solvent of dimethyl sulfoxide/propylene glycol=1/1 and administered.
(5) Administration method: the test sample was administered to the tail vein through a syringe with an injection needle.
(6) Evaluation item: blood was collected over time, and the concentration of the compound of the present invention in plasma was measured using LC/MS/MS.
(7) Statistical analysis: total body clearance (CLtot) and elimination half-life (t½) were calculated as to change in the concentration of the compound of the present invention in plasma by the moment analysis method.

T1 sequence (Q14524 whole entry): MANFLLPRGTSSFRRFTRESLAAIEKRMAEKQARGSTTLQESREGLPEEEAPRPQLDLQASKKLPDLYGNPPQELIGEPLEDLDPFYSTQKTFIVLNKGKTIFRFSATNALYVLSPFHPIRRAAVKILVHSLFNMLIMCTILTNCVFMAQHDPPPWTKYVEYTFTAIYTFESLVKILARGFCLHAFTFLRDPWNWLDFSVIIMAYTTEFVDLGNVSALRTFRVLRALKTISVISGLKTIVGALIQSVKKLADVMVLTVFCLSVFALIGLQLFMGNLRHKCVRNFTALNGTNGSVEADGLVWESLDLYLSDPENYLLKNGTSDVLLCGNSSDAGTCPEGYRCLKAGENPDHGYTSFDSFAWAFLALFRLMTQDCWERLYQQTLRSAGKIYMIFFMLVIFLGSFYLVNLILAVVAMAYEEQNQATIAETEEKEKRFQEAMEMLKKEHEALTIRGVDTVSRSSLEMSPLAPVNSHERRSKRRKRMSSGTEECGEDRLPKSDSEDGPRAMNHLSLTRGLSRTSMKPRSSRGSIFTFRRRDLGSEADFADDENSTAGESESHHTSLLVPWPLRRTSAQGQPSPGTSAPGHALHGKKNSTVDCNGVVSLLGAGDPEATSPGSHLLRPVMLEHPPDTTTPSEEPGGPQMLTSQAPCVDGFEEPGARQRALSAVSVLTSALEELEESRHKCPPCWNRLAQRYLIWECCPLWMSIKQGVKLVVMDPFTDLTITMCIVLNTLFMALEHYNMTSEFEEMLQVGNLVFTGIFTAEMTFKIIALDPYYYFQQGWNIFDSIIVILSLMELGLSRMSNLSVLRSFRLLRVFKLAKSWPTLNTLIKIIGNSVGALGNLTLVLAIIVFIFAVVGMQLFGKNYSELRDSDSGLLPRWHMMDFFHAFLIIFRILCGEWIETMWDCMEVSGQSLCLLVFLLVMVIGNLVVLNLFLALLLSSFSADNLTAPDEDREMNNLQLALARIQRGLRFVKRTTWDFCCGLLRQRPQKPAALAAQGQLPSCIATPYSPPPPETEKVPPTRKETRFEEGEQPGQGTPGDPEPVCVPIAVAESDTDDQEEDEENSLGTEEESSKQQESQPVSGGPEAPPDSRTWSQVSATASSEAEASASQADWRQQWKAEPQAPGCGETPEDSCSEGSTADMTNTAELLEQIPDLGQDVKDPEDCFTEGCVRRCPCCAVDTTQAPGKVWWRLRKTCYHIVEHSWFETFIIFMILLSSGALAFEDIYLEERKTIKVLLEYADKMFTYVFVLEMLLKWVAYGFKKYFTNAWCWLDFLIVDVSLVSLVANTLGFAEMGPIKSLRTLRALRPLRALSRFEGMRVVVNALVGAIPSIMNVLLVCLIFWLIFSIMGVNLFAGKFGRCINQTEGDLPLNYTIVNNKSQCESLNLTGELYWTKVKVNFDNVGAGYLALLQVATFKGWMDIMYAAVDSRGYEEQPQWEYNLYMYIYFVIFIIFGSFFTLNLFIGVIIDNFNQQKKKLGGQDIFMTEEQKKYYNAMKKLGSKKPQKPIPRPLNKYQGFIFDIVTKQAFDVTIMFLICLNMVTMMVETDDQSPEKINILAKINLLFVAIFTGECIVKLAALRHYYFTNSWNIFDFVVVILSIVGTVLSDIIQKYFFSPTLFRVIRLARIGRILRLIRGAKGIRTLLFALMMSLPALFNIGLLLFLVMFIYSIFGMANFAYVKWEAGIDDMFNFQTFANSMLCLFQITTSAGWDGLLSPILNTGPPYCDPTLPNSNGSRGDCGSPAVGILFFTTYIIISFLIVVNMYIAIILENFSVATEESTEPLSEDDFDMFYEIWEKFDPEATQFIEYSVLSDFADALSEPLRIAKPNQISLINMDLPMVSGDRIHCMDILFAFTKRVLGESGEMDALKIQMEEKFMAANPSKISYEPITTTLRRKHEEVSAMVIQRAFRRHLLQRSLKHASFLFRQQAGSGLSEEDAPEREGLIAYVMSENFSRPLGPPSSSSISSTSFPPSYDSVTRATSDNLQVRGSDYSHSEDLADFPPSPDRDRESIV

Compound | ratio of maximum peak current (INa) with compound relative to medium [1] | residual rate [2] | EC50 (HIV) | FC (fold change) for mutant strain 2 [3] | FC (fold change) for mutant strain 1 [4] | half-life [5] | clearance [5] | EC50 (HIV; MT-4 cells, cultured 4 days, MTT)
CCN1C(=O)c2c(O)c(=O)c(-c3nnc(Cc4c(F)cc(F)cc4F)s3)cn2N2CCOC[C@@H]12 [II-018] | 109% | 95.3 | 0.52 nM | 20 | 15 | – | – | –
CCN1C(=O)c2c(O)c(=O)c(-c3nnc(Cc4cc(F)c(F)cc4F)s3)cn2N2CCCC[C@@H]12 [Compound I-012] | 97.1% | 72.2 | 4.8 nM | 46 | 23 | – | – | –
C[C@H]1CC[C@H]2N(C)C(=O)c3c(O)c(=O)c(-c4nnc(Cc5ccc(F)cc5F)s4)cn3N2C1 [II-041] | 78.8% | 95.5 | 0.25 nM | 8 | 5.8 | – | – | –
CCN1C(=O)c2c(O)c(=O)c(-c3nnc(Cc4c(F)cc(F)cc4F)s3)cn2N2[C@H](C)CCC[C@@H]12 [II-044] | – | 88.5 | 1.4 nM | 26 | 11 | – | – | –
CCN1C(=O)c2c(O)c(=O)c(-c3nnc(Cc4c(F)cc(F)cc4F)s3)cn2N2CC[C@H](C)C[C@@H]12 [II-061] | – | 91.5 | 1.8 nM | 7.3 | 5.1 | – | – | –
CCN1C(=O)c2c(O)c(=O)c(-c3nnc(Cc4c(F)cc(F)cc4F)s3)cn2N2CC[C@@H](C)C[C@@H]12 [II-057] | – | 82.5 | 1.7 nM | 3.6 | 3 | – | – | –
CN1C(=O)c2c(O)c(=O)c(-c3nnc(Cc4ccc(F)cc4F)s3)cn2N2CCCC[C@@H]12 [II-003] | 96.7% | 109 | 0.62 nM | 12 | 8.8 | – | – | –
CCN1C(=O)c2c(O)c(=O)c(-c3nnc(Cc4ccc(F)cc4)s3)cn2N2C[C@@H]3CC[C@@H](O3)[C@@H]12 [II-050] | – | 103 | 0.66 nM | 29 | 20 | – | – | –
CCN1C(=O)c2c(O)c(=O)c(-c3nnc(Cc4ccc(F)cc4)s3)cn2N2[C@H](COC)CC[C@@H]12 [II-038] | 86.2% | 92.4 | 0.13 nM | 31 | 20 | – | – | –
CCN1C(=O)c2c(O)c(=O)c(-c3nnc(Cc4ccc(F)cc4F)s3)cn2N2[C@H](COC)CC[C@@H]12 [II-024] | 89.3% | 96.5 | 0.13 nM | 11 | 8.2 | 1420 min | 2.18 mL/h/kg | –
CCN1C(=O)c2c(O)c(=O)c(-c3nnc(Cc4cc(F)c(F)cc4F)s3)cn2N2C[C@@H]3CC[C@@H](C3)[C@@H]12 [II-062] | – | 71.7 | 5.2 nM | 6.6 | 8.3 | – | – | –
CCN1C(=O)c2c(O)c(=O)c(-c3nnc(Cc4c(F)cc(F)cc4F)s3)cn2N2C[C@@H]3CC[C@@H](C3)[C@@H]12 [II-052] | – | 83.4 | 0.66 nM | 3.5 | 2.3 | – | – | –
CC(C)N1C(=O)c2c(O)c(=O)c(-c3nnc(Cc4c(F)cc(F)cc4F)s3)cn2N2C[C@@H]3CC[C@@H](O3)[C@@H]12 [II-054] | – | 98.8 | 1 nM | 8.2 | 3.5 | – | – | –
CN1C(=O)c2c(O)c(=O)c(-c3nnc(Cc4c(F)cc(F)cc4F)s3)cn2N2C[C@@H]3CC[C@@H](C3)[C@@H]12 [II-063] | – | 96.5 | 0.6 nM | 12 | 14 | – | – | –
CCN1C(=O)c2c(O)c(=O)c(-c3cnn(Cc4ncc(Cl)cc4F)c3)cn2N2CCCC[C@@H]12 [II-013] | – | – | – | – | – | 2120 min | 1.36 mL/h/kg | 32 nM
CCN1C(=O)c2c(O)c(=O)c(-c3nnc(Cc4ccc(F)cc4F)s3)cn2N2CC[C@@H](C)C[C@@H]12 [II-033] | 90.7% | – | – | – | – | – | – | –
CCN1C(=O)c2c(O)c(=O)c(-c3nnc(Cc4ccc(F)cc4F)s3)cn2N2C[C@@H](C)CC[C@@H]12 [II-067] | – | 93 | 0.3 nM | 5.1 | 5.2 | – | – | –
CCN1C(=O)c2c(O)c(=O)c(-c3nnc(Cc4c(F)cc(F)cc4F)s3)cn2N2C[C@@H]3CC[C@@H](O3)[C@@H]12 [II-046] | – | 97.2 | 0.6 nM | 20 | 17 | – | – | –
C[C@@H]1CCN2[C@@H](C1)N(C)C(=O)c1c(O)c(=O)c(-c3nnc(Cc4c(F)cc(F)cc4F)s3)cn12 [II-058] | – | 94.2 | 0.69 nM | 6.1 | 6.1 | – | – | –
C[C@@H]1CC[C@H]2N(C)C(=O)c3c(O)c(=O)c(-c4nnc(Cc5ccc(F)cc5F)s4)cn3N12 [II-029] | – | 85.3 | 0.66 nM | 6.5 | 7.2 | – | – | –
C[C@@H]1CCC[C@H]2N(C)C(=O)c3c(O)c(=O)c(-c4nnc(Cc5ccc(F)cc5F)s4)cn3N12 [II-043] | – | 103 | 3.5 nM | 11 | 6.8 | – | – | –
